Assay [1] has as its system purified plasma fibronectin. As to the kind of experiment: Fibronectin aggregation assay (O.D.600). Conditions: 1 μM purified plasma fibronectin, absorbance at 600 nm. The assay is classed as biochemical, human. The procedure:
BBK32, FnbpA peptide D3, Anastellin, and purified plasma fibronectin were centrifuged at 14,000 rpm for 15 minutes and then filtered through 0.22 μm PES syringe filters (Nalgene, Rochester, N.Y.). Following filtration, BBK32, FnbpA peptide D3, and Anastellin were titrated into 1 μM purified plasma fibronectin in TBS. After the addition of each aliquot, the fibronectin/protein mixture was carefully mixed five times with a 200 μl pipette and optical density at 600 nm was measured using a BioPhotometer (Eppendorf, New York, N.Y.) after 10 seconds.

The subject of assay [2] is human umbilical vein endothelial cells (HUVECs). Description: Endothelial cell proliferation assay. The assay is classed as cell-based. Particulars: 72 hours, cell counts. The procedure: Cells were seeded onto tissue culture plates in full media and allowed to adhere for two hours. […] Cells were then incubated for 72 hours at 37° C., 5% CO2. After 72 hours, wells were washed, trypsinized, and counted (three counts/well, three wells/dose) using a hemacytometer.
1×10^4 human umbilical vein endothelial cells (HUVECs) (Cambrex) were seeded into Costar 24 well tissue culture plates in endothelial growth media-2 (EGM-2) (Cambrex) and allowed to adhere for two hours. After two hours, BBK32, Anastellin, and FnbpA peptide D3 were added in a dose dependent manner (triplicate) to the wells suspended in EGM-2. Cells were allowed to incubate for 72 hours at 37° C., 5% CO2. After 72 hours, wells were washed with PBS and cells were trypsinized with 0.5% trypsin/EDTA (Cambrex). Trypsinized cells were collected in microcentrifuge tubes and trypsin/EDTA was neutralized with EGM-2. Cells were counted from each well (three counts/well, three wells/dose) using a hemacytometer.

The subject of assay [3] is fibronectin matrix of normal human dermal fibroblasts (NHDFs). Description: Effects on fibronectin matrix assembled by normal human dermal fibroblasts (immunostaining). The assay is classed as cell-based. Conditions: 5 μM, 20 hours. The procedure: Cells were treated for 20 hours and then fixed. […] Treated cells were incubated for 20 hours and probed with Alexa Fluor 488-anti-fibronectin, monoclonal antibody IST-1, and monoclonal antibody IST-9. Images were taken using LSM 510 Confocal Microscope. Bar=10 μm.
4×10^4 adult normal human dermal fibroblasts (NHDFs) (Cambrex, East Rutherford, N.J.) were seeded onto glass coverslips in 24 well Costar tissue culture plates in Fibroblast growth media-2 (FGM-2) (Cambrex). Cells were allowed to grow for 48 hours and then BBK32, Anastellin, or FnbpA peptide D3 was added to a final concentration of 5 μM in FGM-2. Treated cells were incubated for 20 hours at 37° C., 5% CO2. After incubation, cells were washed with Dulbecco's PBS (DPBS) (Gibco, Invitrogen, Carlsbad, Calif.) and fixed with 2% paraformaldehyde for 30 minutes at room temperature. Following washing with DPBS, cells were blocked with 1% BSA for one hour at room temperature. Cells were then probed with Alexa Fluor 488-anti-fibronectin, Texas Red anti-His, monoclonal antibodies IST-1 (plasma and cellular fibronectin) and IST-9 (cellular fibronectin) (abcam, Cambridge, UK) or combinations of antibodies at a dilution of 1:3000 for one hour at room temperature. Following extensive washing with DPBS, appropriate fluorescently labeled secondary antibodies (Alexa Fluor 594-goat anti-mouse) (Invitrogen, Carlsbad, Calif.) were added at a dilution of 1:3000 and incubated for one hour at room temperature. After incubation, cells were washed extensively with DPBS and coverslips were mounted using Gel/Mount (biømeda, Foster City, Calif.) onto glass slides and images were taken using a LSM 510 Confocal Microscope (Zeiss).

In assay [4] the test system is leukocyte (mononuclear cell) migration across endothelial cell layer. Description: Transendothelial migration assay (Transwell). The assay is classed as cell-based. Conditions: IL-4 treated endothelial layer, IL-8 chemoattractant, four hours. The procedure: To determine if sFn decrease the migration of leukocytes to the infection site, transendothelial migration assays were assessed. In these assays endothelial cells were grown to confluence in Transwell® inserts and were encouraged to form tight junctions using interleukin 4 (IL-4). SFn formation was then induced to form on the surface of the endothelial cell layer using BBK32 (21-354), (21-205) and (153-175). A chemoattractant (IL-8) was added to the bottom chamber of the Transwell setup. Mononuclear cells were added to the upper chamber and permitted to migrate for four hours. Following incubation, cells in the bottom chamber were counted.

The results in this text go back to patent US7824868B2, “Formation of superfibronectin by BBK32 and uses therefor” (priority 2007, dated 2010).

Sequence of purified plasma fibronectin (P02751 32-1265 limits assumed): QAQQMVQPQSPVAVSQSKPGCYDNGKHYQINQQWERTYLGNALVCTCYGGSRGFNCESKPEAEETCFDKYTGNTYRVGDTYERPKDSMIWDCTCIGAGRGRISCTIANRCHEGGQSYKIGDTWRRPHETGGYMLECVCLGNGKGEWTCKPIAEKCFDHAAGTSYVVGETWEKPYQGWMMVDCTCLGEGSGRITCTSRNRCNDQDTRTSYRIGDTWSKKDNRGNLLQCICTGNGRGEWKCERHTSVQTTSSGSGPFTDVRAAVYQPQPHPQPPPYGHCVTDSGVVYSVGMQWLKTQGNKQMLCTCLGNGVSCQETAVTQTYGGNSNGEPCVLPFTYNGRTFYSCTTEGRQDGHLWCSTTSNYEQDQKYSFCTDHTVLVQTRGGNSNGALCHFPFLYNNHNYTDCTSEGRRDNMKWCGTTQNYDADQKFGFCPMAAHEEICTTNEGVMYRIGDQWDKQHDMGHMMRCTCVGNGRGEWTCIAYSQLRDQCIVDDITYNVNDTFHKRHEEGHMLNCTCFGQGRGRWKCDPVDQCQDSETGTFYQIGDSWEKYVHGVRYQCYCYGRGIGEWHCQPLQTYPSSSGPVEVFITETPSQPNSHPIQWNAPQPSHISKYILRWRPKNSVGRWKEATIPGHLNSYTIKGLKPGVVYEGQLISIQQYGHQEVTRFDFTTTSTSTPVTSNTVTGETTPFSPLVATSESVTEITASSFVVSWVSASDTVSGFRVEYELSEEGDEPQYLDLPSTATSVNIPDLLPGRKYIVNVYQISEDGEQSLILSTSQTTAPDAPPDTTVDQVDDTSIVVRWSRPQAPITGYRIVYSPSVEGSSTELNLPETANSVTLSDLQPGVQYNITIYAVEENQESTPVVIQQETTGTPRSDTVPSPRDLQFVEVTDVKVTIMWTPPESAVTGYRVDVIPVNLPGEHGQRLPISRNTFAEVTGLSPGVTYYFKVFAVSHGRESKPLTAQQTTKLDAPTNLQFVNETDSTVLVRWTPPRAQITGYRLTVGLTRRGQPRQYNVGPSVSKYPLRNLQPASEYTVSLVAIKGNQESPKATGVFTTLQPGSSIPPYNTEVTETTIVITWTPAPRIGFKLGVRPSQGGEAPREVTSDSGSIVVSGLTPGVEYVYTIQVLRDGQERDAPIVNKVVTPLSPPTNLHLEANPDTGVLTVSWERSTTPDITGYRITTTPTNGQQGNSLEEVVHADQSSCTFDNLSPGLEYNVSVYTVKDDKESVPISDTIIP

Take “IDLTIDSDLRPKSSLQGIAGSNS (recombinant peptide from residues 153-175 of BBK32) [BBK32(153-175), BBK32 peptide, residues 153-175, containing the motifs similar to anastellin]”: the “induction of plasma fibronectin aggregation (in words)” value in assay [1] is given as “induce aggregation of plasma fibronectin in a concentration dependent manner”. Moreover, the “effect on proliferation of endothelial cells (in words)” value in assay [2] is reported as “inhibits human umbilical vein endothelial cell proliferation in a concentration dependent manner”. The “immunostaining with monoclonal antibody IST 9 (EDA epitope of cellular fibronectin)” value in assay [3] is “indicates conformational changes in fibronectin in matrices produced by fibroblasts”. For the same sequence, the “inhibition of transendothelial migration by induced sFn” value in assay [4] is “as effective at inhibiting transendothelial migration as the full length BBK32 protein”.
